As usually defined, the IC50 is the concentration needed to halve the response being measured.

The results in this text go back to patent publication US9169209B2, “Compounds and compositions for the inhibition of NAMPT” (FORMA TM, LLC, priority 2011, dated 2015).

One experiment deals with NAMPT (Homo sapiens (Human), UniProt P43490). As to the kind of experiment: Biochemical Inhibition Assay (NAMPT enzymatic reaction, NMN quantified by mass spectrometry). Particulars: recombinant His-tagged NAMPT, 33 nM; 1 μM NAM; read-out: Biochem IC50. As to the method:
Recombinant His-tagged NAMPT was produced in E. coli cells, purified over a Ni column, and further purified over a size-exclusion column by XTAL Biostructures.
The NAMPT enzymatic reactions were carried out in Buffer A (50 mM Hepes pH 7.5, 50 mM NaCl, 5 mM MgCl2, and 1 mM THP) in 96-well V-bottom plates. The compound titrations were performed in a separate dilution plate by serially diluting the compounds in DMSO to make a 100× stock. […] The compound and enzyme mix was incubated for 15 minutes at room temperature, then 10 μL of 10× substrate and co-factors in Buffer A were added to the test well to make a final concentration of 1 μM NAM, 100 μM 5-Phospho-D-ribose 1-diphosphate (PRPP), and 2.5 mM Adenosine 5′-triphosphate (ATP). The reaction was allowed to proceed for 30 minutes at room temperature, then was quenched with the addition of 11 μL of a solution of formic acid and L-Cystathionine to make a final concentration of 1% formic acid and 10 μM L-Cystathionine. Background and signal strength was determined by addition (or non-addition) of a serial dilution of NMN to a pre-quenched enzyme and cofactor mix.
A mass spectrometry-based assay was used to measure the NAMPT reaction product (NMN) and the internal control (L-Cystathionine). NMN and L-Cystathionine were detected using the services of Biocius Lifesciences with the RapidFire system. In short, the NMN and L-Cystathionine are bound to a graphitic carbon cartridge in 0.1% formic acid, eluted in 30% acetonitrile buffer, and injected into a Sciex 4000 mass spectrometer. The components of the sample were ionized with electrospray ionization and the positive ions were detected. […] The fragments are quantified and the analyzed by the following method.
First the NMN signal is normalized to the L-Cystathionine signal by dividing the NMN signal by the L-Cystathionine signal for each well. The signal from the background wells are averaged and subtracted from the test plates.
Wherein x denotes the average signal of the compound treated wells and y denotes the average signal of the DMSO treated wells.
IC50s are Determined Using Excel and this Formula.
Wherein X denotes the compound concentration 1, Y denotes the compound concentration 2, XX denotes the % inhibition at compound concentration 1 (X), and YY denotes the % inhibition at compound concentration 2 (Y).

The next experiment has as its system A2780 cells. Kind of experiment: In-Vitro Cell Proliferation Assay (SRB, 72 hours). It is filed as cell-based. To be noted: Homo sapiens, A2780, 72 h, A2780 cells, 72 hours, sulforhodamine B; read-out: A2780 IC50. How it is done: After overnight incubation at 37° C. and 5% CO2, the compound titrations were performed in a separate dilution plate by serially diluting the compounds in DMSO to make a 1000× stock. The compounds were then further diluted to 10× final concentration in culture media, whereupon 20 μL of each dilution was added to the plated cells with controls (e.g. DMSO and blank) to make a final volume of 200 μL. The final DMSO concentration in each well was 0.1%. The plates were then incubated for 72 hours at 37° C. in a 5% CO2 incubator. The number of viable cells was then assessed using sulforhodamine B (SRB) assay. Cells were fixed at 4° C. for 1 hour with the addition of 50 μL 30% trichloroacetic acid (TCA) to make a final concentration of 6% TCA. The plates were washed four times with H2O and allowed to dry for at least 1 hour, whereupon 100 μL of a 4% SRB in 1% acetic acid solution was added to each well and incubated at room temperature for at least 30 minutes. The plates were then washed three times with 1% acetic acid, dried, and treated with 100 μL of 10 mM Tris-Base solution. The plates were then read in a microplate reader at an absorbance of 570 nm. Background was generated on a separate plate with media only.
First, the signals from the background plate are averaged and then the background was subtracted from the test plates.
wherein x denotes the average signal of the compound-treated cells and y denotes the average signal of the DMSO-treated cells.
wherein X denotes the compound concentration 1, Y denotes the compound concentration 2, XX denotes the % inhibition at compound concentration 1 (X), and YY denotes the % inhibition at compound concentration 2 (Y).

Sequence of NAMPT (P43490 whole entry): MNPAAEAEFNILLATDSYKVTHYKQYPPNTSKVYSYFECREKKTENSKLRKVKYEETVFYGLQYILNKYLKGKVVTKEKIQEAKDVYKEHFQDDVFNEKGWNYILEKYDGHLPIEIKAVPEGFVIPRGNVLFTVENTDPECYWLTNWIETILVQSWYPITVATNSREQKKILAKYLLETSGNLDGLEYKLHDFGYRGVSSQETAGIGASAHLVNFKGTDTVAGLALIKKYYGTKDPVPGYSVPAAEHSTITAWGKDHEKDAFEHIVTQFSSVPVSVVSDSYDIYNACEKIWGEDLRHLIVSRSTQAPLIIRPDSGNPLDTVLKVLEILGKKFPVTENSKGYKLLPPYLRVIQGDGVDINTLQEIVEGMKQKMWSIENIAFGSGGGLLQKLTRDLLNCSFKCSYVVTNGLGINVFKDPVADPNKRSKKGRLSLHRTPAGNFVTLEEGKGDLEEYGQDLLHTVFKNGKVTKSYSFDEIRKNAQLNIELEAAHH

Consider `CCN(CC)C(=O)c1cc(Cl)cc(S(=O)(=O)c2ccc(NC(=O)/C=C/c3cccnc3)cc2)c1` [3-chloro-N,N-diethyl-5-({4-[(2E)-3-(pyridin-3-yl)prop-2-enamido]benzene}sulfonyl)benzamide], for which the IC50 worked out at 19.4 nM on NAMPT and 27.4 nM in the experiment with A2780 cells.
For `O=C(/C=C/c1cccnc1)Nc1ccc(S(=O)(=O)c2ccccc2OC(F)(F)F)cc1` [(2E)-3-(pyridin-3-yl)-N-(4-{[2-(trifluoromethoxy)benzene]sulfonyl}phenyl)prop-2-enamide] the same measures were 3.6 nM and 15.7 nM.
In the same order, the values of `O=C(/C=C/c1cccnc1)Nc1ccc(S(=O)(=O)Nc2ccccc2OC(F)(F)F)cc1` [(2E)-3-(pyridin-3-yl)-N-(4-{[2-(trifluoromethoxy)phenyl]sulfamoyl}phenyl)prop-2-enamide] are 375 nM and 1270 nM.
Take `O=C(/C=C/c1cccnc1)Nc1ccc(S(=O)(=O)c2cccc(OC(F)(F)F)c2)cc1` [(2E)-3-(pyridin-3-yl)-N-(4-{[3-(trifluoromethoxy)benzene]sulfonyl}phenyl)prop-2-enamide]: the IC50 was 61.5 nM on NAMPT and 47.7 nM in the experiment on A2780 cells.
For `O=C(/C=C/c1cccnc1)Nc1ccc(S(=O)(=O)c2cccc(C(F)(F)F)c2)cc1` [(2E)-3-(pyridin-3-yl)-N-(4-{[3-(trifluoromethyl)benzene]sulfonyl}phenyl)prop-2-enamide] the same measures were 31.9 nM and 107 nM.
In the same order, the values of `O=C(/C=C/c1cccnc1)Nc1ccc(S(=O)(=O)c2ccc(OC(F)(F)F)cc2)cc1` [(2E)-3-(pyridin-3-yl)-N-(4-{[4-(trifluoromethoxy)benzene]sulfonyl}phenyl)prop-2-enamide] are 167 nM and 100 to 1000 nM.
For `O=C(/C=C/c1cccnc1)Nc1ccc(S(=O)(=O)c2ccc(C(F)(F)F)cc2)cc1` [(2E)-3-(pyridin-3-yl)-N-(4-{[4-(trifluoromethyl)benzene]sulfonyl}phenyl)prop-2-enamide], the IC50 on NAMPT is 56.5 nM; in the experiment with A2780 cells, 100 to 1000 nM.
As for `O=C(/C=C/c1cccnc1)Nc1ccc(S(=O)(=O)c2cccnc2)cc1` [(2E)-3-(pyridin-3-yl)-N-[4-(pyridine-3-sulfonyl)phenyl]prop-2-enamide], the IC50 was 18.3 nM on NAMPT and 100 to 1000 nM in the experiment with A2780 cells.
In the case of `O=C(/C=C/c1cccnc1)Nc1ccc(S(=O)(=O)c2cnc3ccccc3c2)cc1` [(2E)-3-(pyridin-3-yl)-N-[4-(quinoline-3-sulfonyl)phenyl]prop-2-enamide], the IC50 came out at 3.7 nM on NAMPT and 100 nM in the experiment on A2780 cells.
In the same order, the values of `O=C(/C=C/c1cccnc1)Nc1ccc(S(=O)(=O)c2ccc3ncccc3c2)cc1` [(2E)-3-(pyridin-3-yl)-N-[4-(quinoline-6-sulfonyl)phenyl]prop-2-enamide] are 5.4 nM and 76.2 nM.
For `O=C(/C=C/c1cccnc1)Nc1ccc(S(=O)(=O)c2cccc3cccnc23)cc1` [(2E)-3-(pyridin-3-yl)-N-[4-(quinoline-8-sulfonyl)phenyl]prop-2-enamide] the same measures were 3.6 nM and 12.2 nM.
In the same order, the values of `O=C(/C=C/c1cccnc1)Nc1ccc(S(=O)(=O)c2cncc(N3CCCC3)c2)cc1` [(2E)-3-(pyridin-3-yl)-N-{4-[5-(pyrrolidin-1-yl)pyridine-3-sulfonyl]phenyl}prop-2-enamide] are 1.4 nM and 51.1 nM.
Take `NS(=O)(=O)c1cccc(S(=O)(=O)c2ccc(NC(=O)/C=C/c3cccnc3)cc2)c1` [(2E)-3-(pyridin-3-yl)-N-{4-[(3-sulfamoylbenzene)sulfonyl]phenyl}prop-2-enamide]: the IC50 on NAMPT was 9.9 nM; in the experiment on A2780 cells, 100 to 1000 nM.
Take `O=C(/C=C/c1cccnc1)Nc1ccc(S(=O)(=O)c2cccc3c2oc2ccccc23)cc1` [(2E)-N-(4-{8-oxatricyclo[7.4.0.0^2,^7]trideca-1(13),2,4,6,9,11-hexaene-6-sulfonyl}phenyl)-3-(pyridin-3-yl)prop-2-enamide]: the figures for the IC50 on NAMPT and in the experiment on A2780 cells were 3.5 nM and 7.3 nM, respectively.
For `O=C(/C=C/c1cccnc1)Nc1ccc(S(=O)(=O)c2cc(OC(F)(F)F)ccc2Cl)cc1` [(2E)-N-(4-{[2-chloro-5-(trifluoromethoxy)benzene]sulfonyl}phenyl)-3-(pyridin-3-yl)prop-2-enamide] the same measures were 21 nM and 100 to 1000 nM.
Turning to `COc1cc(C(F)(F)F)ccc1S(=O)(=O)c1ccc(NC(=O)/C=C/c2cccnc2)cc1` [(2E)-N-(4-{[2-methoxy-4-(trifluoromethyl)benzene]sulfonyl}phenyl)-3-(pyridin-3-yl)prop-2-enamide], the IC50 at NAMPT was found to be 59.6 nM; in the experiment on A2780 cells, 118 nM.
`COc1ccc(C(C)C)cc1S(=O)(=O)c1ccc(NC(=O)/C=C/c2cccnc2)cc1` [(2E)-N-(4-{[2-methoxy-5-(propan-2-yl)benzene]sulfonyl}phenyl)-3-(pyridin-3-yl)prop-2-enamide]: the IC50 on NAMPT was determined as 2.6 nM; with A2780 cells it was 16.7 nM.
For `COc1ccc(OC(F)(F)F)cc1S(=O)(=O)c1ccc(NC(=O)/C=C/c2cccnc2)cc1` [(2E)-N-(4-{[2-methoxy-5-(trifluoromethoxy)benzene]sulfonyl}phenyl)-3-(pyridin-3-yl)prop-2-enamide] the same measures were 16.8 nM and 29.3 nM.
Take `COc1ccc(C(F)(F)F)cc1S(=O)(=O)c1ccc(NC(=O)/C=C/c2cccnc2)cc1` [(2E)-N-(4-{[2-methoxy-5-(trifluoromethyl)benzene]sulfonyl}phenyl)-3-(pyridin-3-yl)prop-2-enamide]: the IC50 on NAMPT is 24.2 nM; in the experiment with A2780 cells, 19 nM.
In the same order, the values of `Cc1cc(C(F)(F)F)ccc1S(=O)(=O)c1ccc(NC(=O)/C=C/c2cccnc2)cc1` [(2E)-N-(4-{[2-methyl-4-(trifluoromethyl)benzene]sulfonyl}phenyl)-3-(pyridin-3-yl)prop-2-enamide] are 62.8 nM and 100 to 1000 nM.
In the same order, the values of `O=C(/C=C/c1cccnc1)Nc1ccc(S(=O)(=O)c2cccc(-n3cccn3)c2)cc1` [(2E)-N-(4-{[3-(1H-pyrazol-1-yl)benzene]sulfonyl}phenyl)-3-(pyridin-3-yl)prop-2-enamide] are 4.8 nM and 88 nM.
In the same order, the values of `CC(C)COc1cccc(S(=O)(=O)c2ccc(NC(=O)/C=C/c3cccnc3)cc2)c1` [(2E)-N-(4-{[3-(2-methylpropoxy)benzene]sulfonyl}phenyl)-3-(pyridin-3-yl)prop-2-enamide] are 56.7 nM and 100 to 1000 nM.
Take `Cn1ncc2ccc(S(=O)(=O)c3ccc(NC(=O)/C=C/c4cccnc4)cc3)cc21` [(2E)-N-[4-(1-methyl-1H-indazole-6-sulfonyl)phenyl]-3-(pyridin-3-yl)prop-2-enamide]: the IC50 in the experiment on A2780 cells amounted to 53 nM.
With `COc1ccc2cc(S(=O)(=O)c3ccc(NC(=O)/C=C/c4cccnc4)cc3)ccc2c1` [(2E)-N-[4-(6-methoxynaphthalene-2-sulfonyl)phenyl]-3-(pyridin-3-yl)prop-2-enamide], in the experiment with A2780 cells, the IC50 was 100 to 1000 nM.
Turning to `Cc1ccc(S(=O)(=O)c2ccc(NC(=O)/C=C/c3cccnc3)cc2)cn1` [(2E)-N-[4-(6-methylpyridine-3-sulfonyl)phenyl]-3-(pyridin-3-yl)prop-2-enamide], in the experiment on A2780 cells, the IC50 was 100 to 1000 nM.
In the case of `Cc1cccc(S(=O)(=O)c2ccc(NC(=O)/C=C/c3cccnc3)cc2)c1` [(2E)-N-{4-[(3-methylbenzene)sulfonyl]phenyl}-3-(pyridin-3-yl)prop-2-enamide], the IC50 with A2780 cells was 93.3 nM.
